In assay [1] the target is T1, Pim-1 stably transfected into the U2OS human osteogenic sarcoma line (Homo sapiens, UniProt P11309).
T1 construct: expressed in transfected cells; host or cells: U2OS human osteogenic sarcoma line
Description: Pim cell assay, phospho-BAD normalized against total BAD, U2OS stably transfected with Pim-1. The format is cell-based. Particulars: read-out: Pim1_Cell_IC50. The procedure, abridged:
(§1)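 Read-out is phospho-BAD relative to total BAD, by MSD electrochemiluminescence on lysates, expressed as % phosphoprotein = (2×phospho)/(phospho+total)×100. Engineered U2OS lines carrying stably transfected Pim-1 or Pim-2 received 10-point compound dilutions at 0.3% final DMSO after overnight culture at 37 °C; DMSO-only wells served as high control.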

Assay [2] addresses T2, Pim-2 stably transfected into the U2OS human osteogenic sarcoma line (Homo sapiens, UniProt Q9P1W9).
T2 construct: expressed in transfected cells; host or cells: U2OS human osteogenic sarcoma line
Description: Pim cell assay, phospho-BAD normalized against total BAD, U2OS stably transfected with Pim-2. Also: high dose 31.6 µM. Type of assay: cell-based. Particulars: read-out: Pim2_Cell_IC50. In a few lines:
as §1

Assay [3] deals with T3, full length recombinant Pim-1 protein (Homo sapiens, UniProt P11309).
T3 construct: by full length recombinant Pim-1, Pim-2, or Pim-3 protein; hexahistidine tag followed by a thrombin cleavage site (N); made in house; host or cells: Sf9 (baculovirus) or E. coli (pET28)
Nature of the assay: Pim-1 enzyme assay (HTRF, phosphorylation of biotinylated-BAD (S112) peptide). The format is biochemical. Conditions: enzyme assay, Pim-1; read-out: Pim_1_IC50. The procedure, abridged:
(§2)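 HTRF readout (europium anti-pBAD S112 antibody, streptavidin-APC) of biotin-BAD peptide phosphorylation by recombinant full-length Pim-1 or Pim-2, buffer 60 mM Hepes pH 7.0, 2 mM DTT, 0.05% BSA. Enzymes were His6-tagged, from baculovirus/Sf9 or E. coli.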
For orientation: In TR-FRET formats the signal depends on donor and acceptor labels being close together.

The target of assay [4] is T4, full length recombinant Pim-3 protein (Homo sapiens, UniProt Q86V86).
T4 construct: by full length recombinant Pim-1, Pim-2, or Pim-3 protein; purchased Millipore (UK)
Nature of the assay: Pim-3 enzyme assay (HTRF, phosphorylation of biotinylated-BAD (S112) peptide). Type of assay: biochemical. Conditions: read-out: Pim3 IC50. In a few lines: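 HTRF read-out, streptavidin-APC plus Eu-labelled anti-phospho-BAD (S112) antibody, measures BAD peptide phosphorylation by full-length recombinant Pim-3. Buffer: 60 mM Hepes pH 7.0, 2 mM DTT, 0.05% BSA; EDTA (3 mM) stop. Percent of control per well, IC50 by 4-parameter logistic fit.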

The target of assay [5] is T5, full length recombinant Pim-2 protein (Homo sapiens, UniProt Q9P1W9).
T5 construct: by full length recombinant Pim-1, Pim-2, or Pim-3 protein; hexahistidine tag followed by a thrombin cleavage site (N); made in house; host or cells: Sf9 (baculovirus) or E. coli (pET28)
Nature of the assay: Pim-2 enzyme assay (HTRF, phosphorylation of biotinylated-BAD (S112) peptide). Conditions: enzyme assay, Pim-2; read-out: Pim2_IC50. The format is biochemical. In a few lines:
as §2

Setting [6] is: U2OS cells stably transfected with Pim-1, phospho-BAD, high dose […].
Where [7] appears, read: U2OS cells stably transfected with Pim-2, phospho-BAD, high dose […].

SMILES strings stand for the structures. Read-outs that look alike come from different tables or passages of the source.

T3 sequence (P11309 whole entry): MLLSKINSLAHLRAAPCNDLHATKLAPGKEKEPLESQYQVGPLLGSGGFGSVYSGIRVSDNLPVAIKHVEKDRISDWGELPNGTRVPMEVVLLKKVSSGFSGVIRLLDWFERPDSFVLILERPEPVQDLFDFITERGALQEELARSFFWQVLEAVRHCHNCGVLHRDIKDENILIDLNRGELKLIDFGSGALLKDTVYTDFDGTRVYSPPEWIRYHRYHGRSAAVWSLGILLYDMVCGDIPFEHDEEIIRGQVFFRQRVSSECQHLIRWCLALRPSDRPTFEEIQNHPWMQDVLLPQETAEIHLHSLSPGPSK
T1 sequence (P11309 whole entry): as above
T5 sequence (Q9P1W9 whole entry): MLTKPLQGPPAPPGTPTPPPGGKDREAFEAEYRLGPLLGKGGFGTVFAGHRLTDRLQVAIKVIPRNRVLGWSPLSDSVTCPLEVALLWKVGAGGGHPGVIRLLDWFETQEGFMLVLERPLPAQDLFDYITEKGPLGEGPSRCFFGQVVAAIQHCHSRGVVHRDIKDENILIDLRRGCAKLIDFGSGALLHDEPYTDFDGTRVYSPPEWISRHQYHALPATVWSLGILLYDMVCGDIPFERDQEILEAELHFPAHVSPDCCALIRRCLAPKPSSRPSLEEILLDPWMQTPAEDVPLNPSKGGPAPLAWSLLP
T2 sequence (Q9P1W9 whole entry): as above

Take `Fc1cccc(F)c1-c1ccc2[nH]cc(-c3cncc(NC4CCCNC4)c3)c2n1` (stereo not drawn) [Example 33, 5-(5-(2,6-difluorophenyl)-1H-pyrrolo[3,2-b]pyridin-3-yl)-N-(piperidin-3-yl)pyridin-3-amine]: the IC50 was 1080 nM in assay [1]; more than 31.6 µM in assay [2]; 26 nM in assay [3]; 69 nM in assay [4]; 243 nM in assay [5].

In the case of `NC1CCN(c2cncc(-c3c[nH]c4ccc(-c5ccccc5F)nc34)c2)CC1` [Example 34, 1-(5-(5-(2-fluorophenyl)-1H-pyrrolo[3,2-b]pyridin-3-yl)pyridin-3-yl)piperidin-4-amine], the IC50 was 1010 nM in assay [1]; more than 31.6 µM in assay [2]; 27 nM in assay [3]; 29 nM in assay [4]; 380 nM in assay [5].

Take `NC1CCN(c2cncc(-c3n[nH]c4ccc(-c5cc(C(=O)NCc6ccccc6)ccc5F)cc34)n2)CC1` [Example 36, 3-(3-(6-(4-amino-1-piperidinyl)-2-pyrazinyl)-1H-indazol-5-yl)-N-benzyl-4-fluorobenzamide]: the IC50 was 2060 nM in assay [1] (setting [6]); 6.61 µM in assay [2] (setting [7]); 6 nM in assay [3]; 2 nM in assay [4]; 7 nM in assay [5].

As for `CC(C)(C)NC(=O)c1ccc(F)c(-c2ccc3[nH]nc(-c4cncc(N5CCC(N)CC5)n4)c3c2)c1` [Example 37, 3-(3-(6-(4-amino-1-piperidinyl)-2-pyrazinyl)-1H-indazol-5-yl)-N-tert-butyl-4-fluorobenzamide], the IC50 in assay [1] (setting [6]) was 573 nM; in assay [2] (setting [7]) it was 3.53 µM; in assay [3], 13 nM; in assay [4], 5 nM; in assay [5], 19 nM.

As for `CCCCNC(=O)c1ccc(F)c(-c2ccc3[nH]nc(-c4cncc(N5CCC(N)CC5)n4)c3c2)c1` [Example 38, 3-(3-(6-(4-amino-1-piperidinyl)-2-pyrazinyl)-1H-indazol-5-yl)-N-butyl-4-fluorobenzamide], the IC50 in assay [1] (setting [6]) came out at 1210 nM; in assay [2] (setting [7]), 4.74 µM; in assay [3], 7 nM; in assay [4], 3 nM; in assay [5], 9 nM.

On to `CCCNC(=O)c1ccc(F)c(-c2ccc3[nH]nc(-c4cncc(N5CCC(N)CC5)n4)c3c2)c1` [Example 39, 3-(3-(6-(4-amino-1-piperidinyl)-2-pyrazinyl)-1H-indazol-5-yl)-4-fluoro-N-propylbenzamide], for which the IC50 in assay [1] (setting [6]) stood at 1620 nM; in assay [2] (setting [7]), 6.63 µM; in assay [3], 7 nM; in assay [4], 4 nM; in assay [5], 10 nM.

Regarding `CN(C)C(=O)c1ccc(F)c(-c2ccc3[nH]nc(-c4cncc(N5CCC(N)CC5)n4)c3c2)c1` [Example 40, 3-(3-(6-(4-amino-1-piperidinyl)-2-pyrazinyl)-1H-indazol-5-yl)-4-fluoro-N,N-dimethylbenzamide], the IC50 was 2370 nM in assay [1] (setting [6]); 7.06 µM in assay [2] (setting [7]); 24 nM in assay [3]; 16 nM in assay [4]; 13 nM in assay [5].

`NC1CCN(c2cncc(-c3n[nH]c4ccc(-c5cc(C(=O)N6CCCCC6)ccc5F)cc34)n2)CC1` [Example 41, 1-(6-(5-(2-fluoro-5-(1-piperidinylcarbonyl)phenyl)-1H-indazol-3-yl)-2-pyrazinyl)-4-piperidinamine]: the IC50 was 1400 nM in assay [1] (setting [6]); 8.52 µM in assay [2] (setting [7]); 35 nM in assay [3]; 26 nM in assay [4]; 29 nM in assay [5].

In the case of `NC1CCN(c2cncc(-c3n[nH]c4ccc(-c5cc(C(=O)N6CCOCC6)ccc5F)cc34)n2)CC1` [Example 42, 1-(6-(5-(2-fluoro-5-(4-morpholinylcarbonyl)phenyl)-1H-indazol-3-yl)-2-pyrazinyl)-4-piperidinamine], the IC50 in assay [1] (setting [6]) was determined as 2800 nM; in assay [2] (setting [7]), 9.84 µM; in assay [3] it was 32 nM; in assay [4], 20 nM; in assay [5] it was 41 nM.

The values above are taken from US9090593B2, “Bicyclic compounds as Pim inhibitors” (AMGEN INC., priority 2010, dated 2015).
